This passage reports IC50 results from patent US20240150365A1 (Hotspot Therapeutics, Inc., priority 2022, published 2024).

Broadly, the IC50 is the concentration that gives 50% inhibition.

The subject of assay [1] is NF-kB. In words: NF-kB reporter assay in Jurkat cells stimulated with aCD3/aCD28/PMA. It counts as cell-based. The conditions noted are these: Homo sapiens, Jurkat, read-out: NF-kB Reporter Assay IC50. An outline of the steps:
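Stimulation used final aCD3 5 μg/mL, aCD28 5 μg/mL and PMA 0.03 μg/mL for 4 hr at 37° C, after 1 hr compound pretreatment of 25,000 serum-starved Jurkat cells per well. One-Glo luminescence gave IC50 values.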
A general note: In a reporter assay the amount or activity of a reporter protein is the signal.

For assay [2], the target named is T1, MALT1 (Homo sapiens, UniProt Q9UDY8).
T1 construct: Avi-tagged FL MALT-1 (Pharmaron, stored at −70° C.); Avi tag
T1 sequence (Q9UDY8 1-824): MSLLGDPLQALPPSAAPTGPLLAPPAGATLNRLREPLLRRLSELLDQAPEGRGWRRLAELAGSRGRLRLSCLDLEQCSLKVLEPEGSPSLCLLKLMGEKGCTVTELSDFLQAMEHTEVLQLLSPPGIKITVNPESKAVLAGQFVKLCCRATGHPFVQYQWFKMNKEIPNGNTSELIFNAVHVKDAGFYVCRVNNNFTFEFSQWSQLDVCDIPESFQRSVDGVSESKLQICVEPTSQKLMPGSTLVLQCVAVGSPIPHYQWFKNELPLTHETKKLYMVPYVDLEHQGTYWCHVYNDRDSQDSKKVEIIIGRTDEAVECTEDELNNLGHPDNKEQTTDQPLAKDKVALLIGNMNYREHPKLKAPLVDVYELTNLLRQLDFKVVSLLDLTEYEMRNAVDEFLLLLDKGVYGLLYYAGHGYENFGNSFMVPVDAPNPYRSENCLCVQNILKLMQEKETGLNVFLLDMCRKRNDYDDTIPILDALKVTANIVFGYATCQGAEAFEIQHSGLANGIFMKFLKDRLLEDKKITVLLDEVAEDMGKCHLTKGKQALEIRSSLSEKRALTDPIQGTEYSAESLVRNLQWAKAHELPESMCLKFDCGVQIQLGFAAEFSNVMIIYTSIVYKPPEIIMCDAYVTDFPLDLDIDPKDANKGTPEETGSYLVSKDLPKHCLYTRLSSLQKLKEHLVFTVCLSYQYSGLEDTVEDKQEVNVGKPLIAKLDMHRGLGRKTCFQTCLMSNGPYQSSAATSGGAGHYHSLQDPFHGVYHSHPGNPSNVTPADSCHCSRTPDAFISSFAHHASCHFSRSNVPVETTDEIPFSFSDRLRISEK
In words: MALT-1 Fluorogenic Peptide Cleavage Assay (MALT1 inhibition assay). The format is biochemical. To be noted: Avi-tagged FL MALT-1, Ac-LRSR-AMC peptide substrate, 30 min pre-incubation, 90 min reaction. An outline of the steps: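 IC50 from sigmoidal fits of % inhibition, with fluorescence (ex 342, em 441 nm) from AMC released from the quenched LRSR peptide after 90 min at room temperature. Full-length Avi-tagged MALT1 saw compound for 30 min first; final DMSO 2%.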

Setting [3] is: Jurkat cells, 1 hr compound incubation, aCD3/aCD28/PMA stimulation 4 hr, One-Glo readout.

Where two headings read alike, the source gives them in different places.

Turning to `COc1ncc2cnn(C)c2c1NS(=O)(=O)c1ccc(N2C[C@](O)(C(F)(F)F)CC2=O)nc1` [Example I-236, (S)-6-(4-hydroxy-2-oxo-4-(trifluoromethyl)pyrrolidin-1-yl)-N-(6-methoxy-1-methyl-1H-pyrazolo[4,3-c]pyridin-7-yl)pyridine-3-sulfonamide], the concentration for half-maximal inhibition (IC50) in assay [1] (setting [3]) was above 2.5 µM; in assay [2], 0.4 to 1 µM.
In the case of `COc1ccc2cnn(C)c2c1NS(=O)(=O)c1ccc(-n2cc(C)[nH]c2=O)nc1` [Example I-237, N-(6-methoxy-1-methyl-1H-indazol-7-yl)-6-(4-methyl-2-oxo-2,3-dihydro-1H-imidazol-1-yl)pyridine-3-sulfonamide], the IC50 in assay [1] (setting [3]) and in assay [2] was below 0.4 µM each time.
Regarding `CCOC(=O)c1cnn(-c2ccc(S(=O)(=O)Nc3c(OC)ccc4cnn(C)c34)cn2)c1C` [Example I-238, ethyl 1-{5-[(6-methoxy-1-methylindazol-7-yl)sulfamoyl]pyridin-2-yl}-5-methylpyrazole-4-carboxylate], the concentration for half-maximal inhibition (IC50) in assay [1] (setting [3]) and in assay [2] was below 0.4 µM throughout.
For `COc1ccc2cnn(C)c2c1NS(=O)(=O)c1ccc(-c2nc(C)nn2C)nc1` [Example I-239, 6-(1,3-dimethyl-1H-1,2,4-triazol-5-yl)-N-(6-methoxy-1-methyl-1H-indazol-7-yl)pyridine-3-sulfonamide], the IC50 in assay [1] (setting [3]) is above 2.5 µM; in assay [2], 1 to 2.5 µM.
Consider `COc1ccc2c(F)nn(C)c2c1NS(=O)(=O)c1ccc(-n2cc(Cl)cn2)nc1` [Example I-240, 6-(4-chloro-1H-pyrazol-1-yl)-N-(3-fluoro-6-methoxy-1-methyl-1H-indazol-7-yl)pyridine-3-sulfonamide], for which the IC50 in assay [1] (setting [3]) and in assay [2] was below 0.4 µM each time.
On to `Cn1ncc2cccc(NS(=O)(=O)c3ccc(-c4cnc(C(F)F)s4)nc3)c21` [Example I-241, 6-(2-(difluoromethyl)thiazol-5-yl)-N-(1-methyl-1H-indazol-7-yl)pyridine-3-sulfonamide], for which the IC50 in assay [1] is below 0.4 µM; in assay [2], 0.4 to 1 µM.
Turning to `COc1ccc2cnn(C)c2c1NS(=O)(=O)c1ccc(-n2ncc(CO)c2C)nc1` [Example I-242, 6-[4-(hydroxymethyl)-5-methylpyrazol-1-yl]-N-(6-methoxy-1-methylindazol-7-yl)pyridine-3-sulfonamide], the IC50 in assay [1] (setting [3]) was below 0.4 µM; in assay [2] it was 0.4 to 1 µM.
Regarding `COc1ncc(-c2ccc(S(=O)(=O)Nc3cccc4cnn(C)c34)cn2)s1` [Example I-243, 6-(2-methoxythiazol-5-yl)-N-(1-methyl-1H-indazol-7-yl)pyridine-3-sulfonamide], the IC50 in assay [1] is below 0.4 µM; in assay [2], above 2.5 µM.
Consider `Cn1ncc2cccc(NS(=O)(=O)c3ccc(-c4cnc(N5CCOCC5)s4)nc3)c21` [Example I-244, N-(1-methyl-1H-indazol-7-yl)-6-(2-morpholinothiazol-5-yl)pyridine-3-sulfonamide], for which the figures for the IC50 in assay [1] and in assay [2] were below 0.4 µM and above 2.5 µM, respectively.
With `Cn1ncc2cccc(NS(=O)(=O)c3ccc(-n4ncc5c4CCOC5)nc3)c21` [Example I-245, N-(1-methylindazol-7-yl)-6-{4H,6H,7H-pyrano[4,3-c]pyrazol-1-yl}pyridine-3-sulfonamide], the values for the IC50 in assay [1] (setting [3]) and in assay [2] were below 0.4 µM and above 2.5 µM, respectively.
With `CCOC(=O)c1cnn(-c2ccc(S(=O)(=O)Nc3cccc4cnn(C)c34)cn2)c1C` [Example I-246, ethyl 5-methyl-1-(5-(N-(1-methyl-1H-indazol-7-yl)sulfamoyl)pyridin-2-yl)-1H-pyrazole-4-carboxylate], the IC50 was below 0.4 µM in assay [1] (setting [3]) and above 2.5 µM in assay [2].
On to `Cn1ncc2cccc(NS(=O)(=O)c3ccc(-n4cc5c(n4)CCOC5)nc3)c21` [Example I-247, N-(1-methylindazol-7-yl)-6-{4H,6H,7H-pyrano[4,3-c]pyrazol-2-yl}pyridine-3-sulfonamide], for which the IC50 in assay [1] (setting [3]) was below 0.4 µM; in assay [2], above 2.5 µM.
Take `CN[C@@H]1CCCC[C@H]1N(C)c1ccc(S(=O)(=O)Nc2cccc3cnn(C)c23)cn1` [Example I-248, 6-{methyl[(1R,2R)-2-(methylamino)cyclohexyl]amino}-N-(1-methylindazol-7-yl)pyridine-3-sulfonamide]: the IC50 in assay [1] (setting [3]) and in assay [2] was above 2.5 µM throughout.
As for `COc1ccc2c(F)nn(C)c2c1NS(=O)(=O)c1ccc(-n2cc(C)cn2)nc1` [Example I-249, N-(3-fluoro-6-methoxy-1-methyl-1H-indazol-7-yl)-6-(4-methyl-1H-pyrazol-1-yl)pyridine-3-sulfonamide], the results for the IC50 in assay [1] and in assay [2] were 0.4 to 1 µM and below 0.4 µM, respectively.
For `Cn1ncc2cccc(NS(=O)(=O)c3ccc(-c4cnc(Cl)s4)nc3)c21` [Example I-250, 6-(2-chlorothiazol-5-yl)-N-(1-methyl-1H-indazol-7-yl)pyridine-3-sulfonamide] the same measures were below 0.4 µM and 1 to 2.5 µM.
`COC1(c2cnn(-c3ccc(S(=O)(=O)Nc4cccc5cnn(C)c45)cn3)c2)CC1` [Example I-251, 6-(4-(1-methoxycyclopropyl)-1H-pyrazol-1-yl)-N-(1-methyl-1H-indazol-7-yl)pyridine-3-sulfonamide]: the IC50 in assay [1] (setting [3]) is below 0.4 µM; in assay [2] it was above 2.5 µM.
Turning to `Cc1c(CO)cnn1-c1ccc(S(=O)(=O)Nc2cccc3cnn(C)c23)cn1` [Example I-252, 6-[4-(hydroxymethyl)-5-methylpyrazol-1-yl]-N-(1-methylindazol-7-yl)pyridine-3-sulfonamide], the half-maximal inhibitory concentration (IC50) in assay [1] (setting [3]) was below 0.4 µM; in assay [2], above 2.5 µM.
Turning to `Cn1ncc2cccc(NS(=O)(=O)c3ccc(-c4cnn(C5COC5)c4)nc3)c21` [Example I-253, N-(1-methyl-1H-indazol-7-yl)-6-(1-(oxetan-3-yl)-1H-pyrazol-4-yl)pyridine-3-sulfonamide], the concentration for half-maximal inhibition (IC50) in assay [1] (setting [3]) was 0.4 to 1 µM; in assay [2], above 2.5 µM.
In the case of `Cc1nc(-c2ccc(S(=O)(=O)Nc3cccc4cnn(C)c34)cn2)cn1C(F)(F)F` [Example I-264, 6-(2-methyl-1-(trifluoromethyl)-1H-imidazol-4-yl)-N-(1-methyl-1H-indazol-7-yl)pyridine-3-sulfonamide], the IC50 was below 0.4 µM in assay [1] (setting [3]) and above 2.5 µM in assay [2].
For the molecule `Cn1ncc2cccc(NS(=O)(=O)c3ccc(-c4cnc(C5CC5)s4)nc3)c21` [Example I-265, 6-(2-cyclopropyl-1,3-thiazol-5-yl)-N-(1-methylindazol-7-yl)pyridine-3-sulfonamide], the IC50 in assay [1] (setting [3]) is below 0.4 µM; in assay [2], above 2.5 µM.
For the molecule `CC(C)c1ncc(-c2ccc(S(=O)(=O)Nc3cccc4cnn(C)c34)cn2)s1` [Example I-266, 6-(2-isopropyl-1,3-thiazol-5-yl)-N-(1-methylindazol-7-yl)pyridine-3-sulfonamide], the values for the IC50 in assay [1] and in assay [2] were below 0.4 µM and above 2.5 µM, respectively.
Take `Cn1ncc2cccc(NS(=O)(=O)c3ccc(-c4cnc(C(C)(C)O)s4)nc3)c21` [Example I-267, 6-[2-(2-hydroxypropan-2-yl)-1,3-thiazol-5-yl]-N-(1-methylindazol-7-yl)pyridine-3-sulfonamide]: the half-inhibitory concentration (IC50) was 0.4 to 1 µM in assay [1] (setting [3]) and above 2.5 µM in assay [2].
For `COC(C)(C)c1ncc(-c2ccc(S(=O)(=O)Nc3cccc4cnn(C)c34)cn2)s1` [Example I-268, 6-(2-(2-methoxypropan-2-yl)thiazol-5-yl)-N-(1-methyl-1H-indazol-7-yl)pyridine-3-sulfonamide], the IC50 in assay [1] was below 0.4 µM; in assay [2], above 2.5 µM.
